The values that follow come from publication PMC12851007 (Angewandte Chemie (International Ed. in English), 2025).

Where a SMILES comes first, the peptide text is derived from it.

Assay [1] can be described thus: CF dye efflux assay, EYPC vesicles. It counts as biochemical. The conditions noted are these: 97 mM NaCl, pH 7.5, 25 °C, n = 1; for Y30µM, membrane activity, CF assay: 30 µM peptide, 25 µM EYPC⸧CF-LUVs (inside 50 mM CF) in 10 mM Hepes, fluorescence λexc 492/λem 517 nm, peptide at 60 s, TX-100 at 600 s, fractional activity. The text has this: Time-dep endent fluores cence intensit y traces, I (t), were subsequentl y normalized to fractional intensities, If(t), using equation (1). Therein, I 0 is the intensity just before addition of peptide and I ∞ is the constant intensit y after addition of the calibration cockt ail.
IIf (tt ) = II (tt )−II0II∞ − II0 (1)
The concentration-dependent fractional intensities just before the addition of the calibration cocktail, If, were then normalized to fractional membrane activities, Y, using equation (2).
Therein, If,0 is the fractional intensit y just before addition of the calibration cocktail in absence of peptide and I f,∞ is the constant fractional intensity after addition of the calibration cocktail.
YY = IIf − IIf,0IIf,∞ − IIf,0 (2)
The fractional membrane activities, Y, were subsequently plotted against the peptide concentration, c, and analysed using the Hill equation (3) to obtain the effective molar concentration, EC50, and the Hill coefficient, n. Y0 and Y ma x are the fractional membrane activities in absen ce o f p eptide and at max imal peptide concent rations. For peptides with too little activity to determine Y ma x ex perimentall y, Y max was fixed at 1.0 during fitting.
YY = YY0 + YYmax − YY0nn (3)
Vesicle preparation. 100 µ L of a solution of 25 mg/ml of POPC in chloroform or 200 µ L of a solution of 25 mg/ml of EYPC in chloroform was purged with a stream of nitrogen and dried overnight under high vacuum. The thin lipid film was reh ydrated with 1ml of reh yd ration buffer (= inside buffer, see Table S3 ) b y agitation at room temperature for 30 min and then subjected to 5 freeze- thaw cycles (freezing in liquid nitrogen and thawing at 40 °C).
Subsequently, the liposome suspension was extruded ≥ 15 times through a polycarbonate membrane (pore size 100 nm). Extravesicular components were then removed by size exclusion chromatography using a 1.5 × 12 cm polyprop ylene column (Bio- Rad, German y) with 1.0 g Sephad ex G-50 (medium) as a stationa r y ph ase and the resp ectiv e outside buffer for […]
Ta b l e S 3. Combinations of inside and outside buffer for CF -LUVs.
No. Lipid Inside buffer = rehydration buffer Outside buffer
(1) EYPC 10 mM Hepes, 50 mM CF, pH 7.5 10 mM Hepes, 97 mM NaCl, pH 7.5
(2) POPC 10 mM Hepes, 50 mM CF, pH 7.5 10 mM Hepes, 97 mM NaCl, pH 7.5
(3) POPC 10 mM Hepes, 50 mM CF, pH 7.5 10 mM Hepes, 175 mM glucose, pH 7.5 [a] [a] Glucose b uffers (183 mOsm/L at 25 °C) were used within one week after preparation.
Vesicle quality control. The size distribution of the liposomes was confirmed by DLS to be unimodal and avera ge ve sicles diameters wer e in the ran ge from 115 to 130 nm. The final lipid content in the liposome s uspension after prep ar ation and sep aration w as det ermined b y NMR. CF vesicles are comparabl y leak y and cont ain minor amounts of ex travesi cular CF after a f ew days. When the fluores cence chan ge after vesicl e lys is b y addition of 20 µ L 1.6% (wt/vol) TX-100 was less than a factor of four, the vesicle suspension was no longer used.
Assay protocol. An appropriate volume of the liposome stock solutions was diluted to 2 mL with outside buffer in a 10 ×10 mm quartz glass cuvette to afford a phospholipid concentration of 25 µM. […] Subsequentl y, the time-dependent change in fluorescence intensity (C F: λ exc = 492 nm, λ em = 517 nm) was recorded during addition of 20 µL peptide stock solution of var ying concentrations at 60 s and 20µ L of a calibration cocktail (1. 6% […]

Assay [2] is described as follows: Dual-channel assay, CX4/LCG channel, POPC/POPS vesicles. It is filed as in vitro ADME. Particulars: 12.5 µM POPC/POPS(9:1)⸧CX4/LCG-LUVs and 12.5 µM POPC/POPS(9:1)⸧CF-LUVs in 10 mM Hepes, 175 mM glucose, pH 7.5; error = SD of fit, n = 1. The text has this: Ultimately, we have also tested the new conditions with vesicles containing the anionic lipid 1‐palmitoyl‐2‐oleoyl‐phosphatidylserine (POPS) with TP10, Pep‐1, and the LRLLRW peptide (Figures S41–S43 and Table S11). The results confirmed that the absolute activity as well as the difference between the CF dye efflux assay and the tandem membrane assay was nearly unaffected by the presence of 10% POPS with the only exception that the membrane‐translocating ability of TP10 was enhanced.
Assay protocol. An appropriate volume of the liposome stock solutions was diluted to 2 mL with outside buffer in a 10 ×10 mm quartz glass cuvette to afford a phospholipid concentration of 25 µM. The cuvette was placed into a thermostatted fluorimeter sample holder and gentl y stirred at 300 rpm at (25.0± 0.1) °C. Subsequentl y, the time-dependent change in fluorescence intensity (C F: λ exc = 492 nm, λ em = 517 nm) was recorded during addition of 20 µL peptide stock solution of var ying concentrations at 60 s and 20µ L of a calibration cocktail (1. 6% […]
Time-dep endent fluores cence intensit y traces, I (t), were subsequentl y normalized to fractional intensities, If(t), using equation (1) and the concentration- dependent fractional intensities just before the addition of th e calibration co cktail, I f, w ere then normaliz ed to fr actional membran e activities, Y, using equation (2). The fractional membrane activities, Y, were subsequently plotted against the peptide concentration, c, and anal ysed using the Hill equation (3) to obtain the effective molar concentration, EC 50, and the Hill coefficient, n. For peptides with too low activity to determine Y max ex perimentall y, Y max was fixed at 1.0 during fitting. […]
Dual-Channel Measurements
Vesicles w ere prep ared a s described abov e (se e en try (4) in Table S2 and entry (3) in Table S3) and eluted with freshl y prepared 10 mM Hepes, 175mM glucos e, pH 7.5 i n the size exclusion chromatograph y. For the measurements, an approp riate volume o f the liposome stock solutions was diluted to 2m L in a 10× 10 mm PS cuvette wi th 10 mM Hep es bu ffer and 175 mM glucos e at pH 7.5 to afford 12.5µM POPC ⊃CX4/LCG-LUVs and 12.5 µM POPC⊃CF-LUVs (25 µM POPC total). The cuvette was placed into a thermostatted fluorimeter sample holder at 25.0 °C and gentl y stirred at 300 rpm. The fluorescence intensity w as simultaneous l y r eco rded in the CF chann el ( λ exc = 525 nm, λ em = 545 nm) and in the LCG channel ( λ exc = 369 nm, λ em = 475 nm) with an ex citation slit width of 5 nm and an emission slit width of 5 n m during addition of 20 µL peptide stock solution of varying concentrations at 60 s and 20 µL of a calibration

The mark [3] stands for this setting: 25 µM lipid, EYPC⊃CF-LUVs, 10 mM Hepes, fractional activity at 590 s, Hill fit, error = SD of fit.

Consider `CC[C@H](C)[C@H](NC(=O)[C@H](CCCCN)NC(=O)[C@@H](NC(=O)[C@@H](N)CCC(N)=O)[C@@H](C)CC)C(=O)N[C@@H](Cc1c[nH]c2ccccc12)C(=O)N[C@@H](Cc1ccccc1)C(=O)N[C@@H](CCC(N)=O)C(=O)N[C@@H](CC(N)=O)C(=O)N[C@@H](CCCNC(=N)N)C(=O)N[C@@H](CCCNC(=N)N)C(=O)N[C@@H](CCSC)C(=O)N[C@@H](CCCCN)C(=O)N[C@@H](Cc1c[nH]c2ccccc12)C(=O)N[C@@H](CCCCN)C(=O)N[C@@H](CCCCN)C(=O)O` (H-QIKIWFQNRRMKWKK-OH), for which, in assay [1] (setting [3]), the “EC50, CF assay, EYPC” value is reported as “too low to determine”. Besides, the “Y30µM, membrane activity, CF assay” value in assay [1] is recorded as 0.14.

Take `CC(C)C[C@H](NC(=O)[C@H](CC(C)C)NC(=O)[C@H](CCCNC(=N)N)NC(=O)[C@@H](N)CC(C)C)C(=O)N[C@@H](CCCNC(=N)N)C(=O)N[C@@H](Cc1c[nH]c2ccccc12)C(N)=O` [LRLLRW] (H-LRLLRW-NH2): the half-maximal effective concentration (EC50) in assay [2] was 9 ± 1.6 µM. Further, the “Y30µM, membrane activity, CF assay” value in assay [1] came to 0.23.

With `CC(C)[C@H](NC(=O)[C@H](CCCCN)NC(=O)[C@H](CCCNC(=N)N)NC(=O)[C@H](CCCCN)NC(=O)[C@H](CCCCN)NC(=O)[C@H](CCCCN)NC(=O)[C@@H]1CCCN1C(=O)[C@H](CCC(N)=O)NC(=O)[C@H](CO)NC(=O)[C@H](Cc1c[nH]c2ccccc12)NC(=O)[C@H](CC(=O)O)NC(=O)[C@@H](NC(=O)[C@H](Cc1c[nH]c2ccccc12)NC(=O)[C@H](Cc1c[nH]c2ccccc12)NC(=O)[C@@H](NC(=O)[C@H](CC(=O)O)NC(=O)[C@H](Cc1c[nH]c2ccccc12)NC(=O)[C@H](Cc1c[nH]c2ccccc12)NC(=O)[C@@H](NC(=O)[C@H](CC(=O)O)NC(=O)[C@@H](N)CCCCN)[C@@H](C)O)[C@@H](C)O)[C@@H](C)O)C(=O)O` [Pep‐1] (H-KDTWWDTWWTDWSQPKKKRKV-OH), the figures for the half-maximal effective concentration (EC50) in assay [2] and in assay [1] (setting [3]) were 5.3 ± 0.66 µM and 35 ± 1 µM, respectively. In addition, the “Y30µM, membrane activity, CF assay” value in assay [1] is on record as 0.46.

`CC[C@H](C)[C@H](NC(=O)[C@H](CCCCN)NC(=O)[C@H](CCCCN)NC(=O)[C@H](C)NC(=O)[C@H](CC(C)C)NC(=O)[C@H](C)NC(=O)[C@H](C)NC(=O)[C@H](CC(C)C)NC(=O)[C@H](C)NC(=O)[C@H](CCCCN)NC(=O)[C@H](CC(C)C)NC(=O)[C@H](CC(N)=O)NC(=O)[C@@H](NC(=O)[C@H](CCCCN)NC(=O)CNC(=O)[C@H](CC(C)C)NC(=O)[C@H](CC(C)C)NC(=O)[C@H](Cc1ccc(O)cc1)NC(=O)CNC(=O)[C@H](C)N)[C@@H](C)CC)C(=O)N[C@@H](CC(C)C)C(=O)O` [TP10]: in assay [2], the EC50 is 0.076 ± 0.01 µM and the “EC50, dual-channel assay, CX4/LCG channel, POPC/POPS” value was “enhanced”.
